Tested on: brain of rats subjected to severe traumatic brain injury (sTBI)
Experiment: Ingenuity pathway analysis of differentially regulated genes after sTBI (canonical pathways, diseases and molecular functions; Example 4)
Design: species or system rat
Method: Pathway analysis of the differentially regulated genes was carried out using the Ingenuity pathway analysis package. The analysis was performed with special reference to pathways and molecular processes and diseases associated with neurodegenerative disease, including dementia, Alzheimer's disease, ALS, TBI and stroke, and with scarring and fibrosis, including glaucoma and normal pressure hydrocephalus (NPH) after subarachnoid haemorrhage.

[1] = TBI + 1 mg/kg LMW-DS, 2 days after TBI
[2] = TBI + 1 mg/kg LMW-DS, 7 days after TBI, relative to control
[3] = TBI + 1 mg/kg LMW-DS, 7 days after TBI
[4] = TBI + 5 mg/kg LMW-DS, 2 days after TBI

Substance: sodium salt of dextran sulfate [LMW-DS]
- Effect on diseases or functions annotation: Apoptosis of muscle cells [1]: Activated
- Effect on diseases or functions annotation: Behavior [1]: Activated
- Effect on diseases or functions annotation: Binding of tumor cell lines [1]: Activated
- Effect on diseases or functions annotation: Carcinoma [1]: Inhibited
- Effect on diseases or functions annotation: Cell death [1]: Inhibited
- Effect on diseases or functions annotation: Cell death of blood cells [1]: Activated
- Effect on diseases or functions annotation: Cell death of immune cells [1]: Activated
- Effect on diseases or functions annotation: Cell movement [1]: Activated
- Effect on diseases or functions annotation: Cell movement of muscle cells [1]: Inhibited
- Effect on diseases or functions annotation: Cell movement of vascular smooth muscle cells [1]: Inhibited
- Effect on diseases or functions annotation: Cell proliferation of T lymphocytes [1]: Inhibited
- Effect on diseases or functions annotation: Cellular homeostasis [1]: Activated
- Effect on diseases or functions annotation: Development of connective tissue cells [1]: Inhibited
- Effect on diseases or functions annotation: Differentiation of bone cells [1]: Inhibited
- Effect on diseases or functions annotation: Differentiation of connective tissue cells [1]: Activated
- Effect on diseases or functions annotation: Differentiation of hematopoietic progenitor cells [1]: Activated
- Effect on diseases or functions annotation: Differentiation of osteoclasts [1]: Inhibited
- Effect on diseases or functions annotation: Digestive organ tumor [1]: Inhibited
- Effect on diseases or functions annotation: Experimentally-induced arthritis [1]: Inhibited
- Effect on diseases or functions annotation: Extracranial solid tumor [1]: Activated
- Effect on diseases or functions annotation: Genital tumor [1]: Activated
- Effect on diseases or functions annotation: Incidence of tumor [1]: Inhibited
- Effect on diseases or functions annotation: Inflammation of absolute anatomical region [1]: Inhibited
- Effect on diseases or functions annotation: Inflammation of body cavity [1]: Inhibited
- Effect on diseases or functions annotation: Inflammation of joint [1]: Inhibited
- Effect on diseases or functions annotation: Inflammation of organ [1]: Inhibited
- Effect on diseases or functions annotation: Inflammatory response [1]: Activated
- Effect on diseases or functions annotation: Interaction of mononuclear leukocytes [1]: Activated
- Effect on diseases or functions annotation: Leukocyte migration [1]: Activated
- Effect on diseases or functions annotation: Leukopoiesis [1]: Activated
- Effect on diseases or functions annotation: Lymphopoiesis [1]: Activated
- Effect on diseases or functions annotation: Malignant solid tumor [1]: Inhibited
- Effect on diseases or functions annotation: Migration of cells [1]: Activated
- Effect on diseases or functions annotation: Necrosis [1]: Inhibited
- Effect on diseases or functions annotation: Non-hematologic malignant neoplasm [1]: Inhibited
- Effect on diseases or functions annotation: Pelvic tumor [1]: Inhibited
- Effect on diseases or functions annotation: Proliferation of blood cells [1]: Inhibited
- Effect on diseases or functions annotation: Proliferation of lymphatic system cells [1]: Inhibited
- Effect on diseases or functions annotation: Proliferation of lymphocytes [1]: Inhibited
- Effect on diseases or functions annotation: Quantity of blood cells [1]: Inhibited
- Effect on diseases or functions annotation: Quantity of bone [1]: Inhibited
- Effect on diseases or functions annotation: Quantity of cells [1]: Inhibited
- Effect on diseases or functions annotation: Quantity of connective tissue cells [1]: Activated
- Effect on diseases or functions annotation: Quantity of leukocytes [1]: Inhibited
- Effect on diseases or functions annotation: Quantity of lymphatic system cells [1]: Inhibited
- Effect on diseases or functions annotation: Quantity of phagocytes [1]: Inhibited
- Effect on diseases or functions annotation: Rheumatic Disease [1]: Inhibited
- Effect on diseases or functions annotation: Solid tumor [1]: Inhibited
- Effect on diseases or functions annotation: Survival of organism [1]: Inhibited
- Effect on diseases or functions annotation: Synthesis of hormone [1]: Activated
- Effect on diseases or functions annotation: Thrombus [1]: Activated
- Effect on diseases or functions annotation: Transport of molecule [1]: Activated
- z score, Ingenuity canonical pathway: Adrenomedullin signaling pathway [2]: −1
- z score, Ingenuity canonical pathway: ERK5 Signaling [2]: −2
- z score, Ingenuity canonical pathway: Endothelin-1 Signaling [2]: 1.342
- z score, Ingenuity canonical pathway: G Beta Gamma Signaling [2]: 1
- z score, Ingenuity canonical pathway: NF-κB Signaling [2]: −0.447
- z score, Ingenuity canonical pathway: Opioid Signaling Pathway [2]: −0.447
- z score, Ingenuity canonical pathway: Role of NFAT in Regulation of the Immune Response [2]: 0.816
- z score, Ingenuity canonical pathway: Synaptic Long Term Depression [2]: 1.342
- Diseases or functions annotation: Abdominal cancer [3]: Inhibited
- Diseases or functions annotation: Abdominal carcinoma [3]: Inhibited
- Diseases or functions annotation: Cell movement [3]: Inhibited
- Diseases or functions annotation: Cell viability [3]: Inhibited
- Diseases or functions annotation: Concentration of hormone [3]: Inhibited
- Diseases or functions annotation: Development of connective tissue cells [3]: Inhibited
- Diseases or functions annotation: Development of malignant tumor [3]: Inhibited
- Diseases or functions annotation: Developmental process of synapse [3]: Inhibited
- Diseases or functions annotation: Differentiation of bone cells [3]: Inhibited
- Diseases or functions annotation: Differentiation of connective tissue cells [3]: Inhibited
- Diseases or functions annotation: Digestive organ tumor [3]: Inhibited
- Diseases or functions annotation: Digestive system cancer [3]: Inhibited
- Diseases or functions annotation: Epithelial neoplasm [3]: Inhibited
- Diseases or functions annotation: Formation of plasma membrane [3]: Inhibited
- Diseases or functions annotation: Frequency of tumor [3]: Inhibited
- Diseases or functions annotation: Gastrointestinal tumor [3]: Inhibited
- Diseases or functions annotation: Hematologic cancer [3]: Inhibited
- Diseases or functions annotation: Hematopoietic neoplasm [3]: Inhibited
- Diseases or functions annotation: Incidence of tumor [3]: Inhibited
- Diseases or functions annotation: Large intestine neoplasm [3]: Inhibited
- Diseases or functions annotation: Liver tumor [3]: Inhibited
- Diseases or functions annotation: Malignant genitourinary solid tumor [3]: Inhibited
- Diseases or functions annotation: Metabolism of hormone [3]: Inhibited
- Diseases or functions annotation: Pelvic tumor [3]: Inhibited
- Diseases or functions annotation: Quantity of Ca^2+ [3]: Inhibited
- Diseases or functions annotation: Quantity of carbohydrate [3]: Activated
- Diseases or functions annotation: Quantity of metal [3]: Activated
- Diseases or functions annotation: Synthesis of lipid [3]: Activated
- Diseases or functions annotation: Tumorigenesis of epithelial neoplasm [3]: Inhibited
- Diseases or functions annotation: Tumorigenesis of tissue [3]: Inhibited
- Diseases or functions annotation: Vaso-occlusion [3]: Activated
- Diseases or functions annotation: Weight gain [3]: Activated
- Ingenuity canonical pathway: Adrenomedullin signaling pathway [3]: Inhibited
- Ingenuity canonical pathway: ERK5 Signaling [3]: Inhibited
- Ingenuity canonical pathway: Endothelin-1 Signaling [3]: Activated
- Ingenuity canonical pathway: G Beta Gamma Signaling [3]: Activated
- Ingenuity canonical pathway: NF-κB Signaling [3]: Inhibited
- Ingenuity canonical pathway: Opioid Signaling Pathway [3]: Inhibited
- Ingenuity canonical pathway: Role of NFAT in Regulation of the Immune Response [3]: Activated
- Ingenuity canonical pathway: Synaptic Long Term Depression [3]: Activated
- Effect on diseases or functions annotation: Abdominal cancer [4]: Inhibited
- Effect on diseases or functions annotation: Abdominal carcinoma [4]: Inhibited
- Effect on diseases or functions annotation: Abdominal neoplasm [4]: Inhibited
- Effect on diseases or functions annotation: Apoptosis [4]: Activated
- Effect on diseases or functions annotation: Behavior [4]: Inhibited
- Effect on diseases or functions annotation: Carcinoma [4]: Inhibited
- Effect on diseases or functions annotation: Cell death [4]: Activated
- Effect on diseases or functions annotation: Cell death of antigen presenting cells [4]: Inhibited
- Effect on diseases or functions annotation: Cell death of immune cells [4]: Inhibited
- Effect on diseases or functions annotation: Cell death of tumor cell lines [4]: Inhibited
- Effect on diseases or functions annotation: Cell movement [4]: Inhibited
- Effect on diseases or functions annotation: Cell movement of tumor cell lines [4]: Inhibited
- Effect on diseases or functions annotation: Cell proliferation of leukocyte cell lines [4]: Inhibited
- Effect on diseases or functions annotation: Cellular homeostasis [4]: Inhibited
- Effect on diseases or functions annotation: Chemotaxis [4]: Inhibited
- Effect on diseases or functions annotation: Concentration of prostaglandin [4]: Inhibited
- Effect on diseases or functions annotation: Development of vasculature [4]: Inhibited
- Effect on diseases or functions annotation: Digestive organ tumor [4]: Inhibited
- Effect on diseases or functions annotation: Digestive system cancer [4]: Inhibited
- Effect on diseases or functions annotation: Edema [4]: Activated
- Effect on diseases or functions annotation: Epithelial neoplasm [4]: Inhibited
- Effect on diseases or functions annotation: Extracranial solid tumor [4]: Inhibited
- Effect on diseases or functions annotation: Feeding [4]: Inhibited
- Effect on diseases or functions annotation: Growth of tumor [4]: Inhibited
- Effect on diseases or functions annotation: Hematologic cancer [4]: Inhibited
- Effect on diseases or functions annotation: Incidence of tumor [4]: Inhibited
- Effect on diseases or functions annotation: Leukocyte migration [4]: Inhibited
- Effect on diseases or functions annotation: Leukopoiesis [4]: Inhibited
- Effect on diseases or functions annotation: Locomotion [4]: Inhibited
- Effect on diseases or functions annotation: Lymphocyte homeostasis [4]: Inhibited
- Effect on diseases or functions annotation: Lymphocytic cancer [4]: Inhibited
- Effect on diseases or functions annotation: Lymphocytic neoplasm [4]: Inhibited
- Effect on diseases or functions annotation: Lymphopoiesis [4]: Inhibited
- Effect on diseases or functions annotation: Lymphoproliferative disorder [4]: Inhibited
- Effect on diseases or functions annotation: Malignant solid tumor [4]: Inhibited
- Effect on diseases or functions annotation: Metabolism of hormone [4]: Inhibited
- Effect on diseases or functions annotation: Migration of cells [4]: Inhibited
- Effect on diseases or functions annotation: Necrosis [4]: Inhibited
- Effect on diseases or functions annotation: Neoplasia of leukocytes [4]: Inhibited
- Effect on diseases or functions annotation: Non-melanoma solid tumor [4]: Inhibited
- Effect on diseases or functions annotation: Proliferation of hematopoietic progenitor cells [4]: Inhibited
- Effect on diseases or functions annotation: Quantity of cells [4]: Inhibited
- Effect on diseases or functions annotation: Quantity of epithelial tissue [4]: Inhibited
- Effect on diseases or functions annotation: Quantity of neuroglia [4]: Inhibited
